In patent US5132409A, “Macrocyclic chelating agents and chelates thereof” (Bracco Industria Chimica S.p.A., priority 1987, dated 1992):

Legend:
[1] = Determination of relaxivity (MINISPEC PC 120 BRUKER, 20 MHz proton, 39° C.); type: physicochemical; conditions: pH 7.3, aqueous solvent, 0-5 mM; for Transverse relaxivity (R2): Carr, Purcell, Meiboom and Gill sequence; for Longitudinal relaxivity (R1): Inversion Recovery
Procedure: Determination of the Relaxivity of the Compounds of the Present Invention
A) Apparatus: […] PC 120 (BRUKER)
B) Observation frequency:
39° C., with pre-thermostatization
of the NMR test tube for 10 min
at the operative temperature
in the range from 0 to 5 mM with the
following specific measuring points:
F) pH: 7.3, to be checked again
potentiometrically before the
relaxation measurement.
Longitudinal relaxivity (R1) measurements were calculated using the "Inversion Recovery" sequence with an 8 point minimum and a 3 parameter fit, according to the program provided for the […] 120 BRUKER instrument, by which measurements were taken.
Transverse relaxivity (R2) measurements were calculated using the sequence of Carr, Purcell, Meiboom and Gill, according to the program provided for the […] 120 BRUKER instrument, by means of which measurements were taken, adjusting the apparatus in such a way as to observe the decay of the signal to about 1/3 of the starting value, with a score number higher or equal to 10 and a 2 parameter fit.

mouse = test: Determination of LD50 in the mouse by intravenous administration; type: in vivo; conditions: male and female mice, strain Crl:CD1(ICR)BR
Excerpt: Determination of LD50 in the Mouse by Intravenous Administration of the Compounds of the Present Invention
In table II are reported, as non-limiting examples, the LD50 values for compounds A and B of the present invention, in comparison with GdCl3 and with Gd/DTPA neutralized with N-methylglucamine.
*male and female mice were used, Strain: Crl:CD1(ICR)BR

[2] = background statement in words; cited from earlier work

| Molecule | Transverse relaxivity (R2) [1] [mM/s] | Longitudinal relaxivity (R1) [1] [mM/s] | LD50 in the mouse (mouse) | removal from the blood stream and from the lesions of the tissues under examination [2] |
| --- | --- | --- | --- | --- |
| CNC[C@H](O)[C@@H](O)[C@H](O)[C@H](O)CO.CNC[C@H](O)[C@@H](O)[C@H](O)[C@H](O)CO.O=C([O-])CN(CCN(CC(=O)[O-])CC(=O)O)CCN(CC(=O)[O-])CC(=O)O.[Gd+3] [Gd/DTPA, reference compound] | 5.15 ± 0.02 | 4.08 ± 0.01 | 4.8 (4.47-5.16) mmol/kg | too quickly removed from the blood stream and from the lesions of the tissues under examination |
| [Cl][Gd]([Cl])[Cl] [GdCl3, reference compound] | – | – | 0.28 (0.24-0.32) mmol/kg | – |
| D(-)-N-methylglucamine salt of Gd^(3+) /2-[1,4,7,10-tetraaza-4,7,10-tri(carboxymethyl)-cyclododecane-1-yl]-3-hydroxypropionic acid complex | 5.06 ± 0.01 | 3.72 ± 0.01 | 13.1 (12.2-14.1) mmol/kg | – |
| D(-)-N-methylglucamine salt of the Gd^(3+) /2-[1,4,7,10-tetraaza-4,7,10-tri(carboxymethyl)-cyclododecane-1-yl]-3-benzyloxypropionic acid complex | 5.67 ± 0.02 | 4.15 ± 0.01 | 8.8 (7.79-9.94) mmol/kg | – |
